Test results published in patent US8063247B2, “Bicyclic aryl and heteroaryl receptor modulators” (Prosidion Limited, priority 2007, dated 2011).

Experiments:
mu-opioid receptor [1] = biological target: T1, mu-opioid receptor (Homo sapiens, UniProt P35372); experiment: Competition binding assay (3H-DAMGO); conditions: mu-opioid receptor expressing membranes, 0.5 nM 3H-DAMGO
Method: Competition Binding Assays
Mu-, kappa- or delta-opioid receptor expressing membranes (5-15 μg/well) were suspended in 50 mM Tris buffer pH 7.6 containing 5 mM MgCl2 and were incubated on 96-well plates with test compound or vehicle (1% DMSO) and either 0.5 nM ^3H-DAMGO, 0.8 nM ^3H-U-69,595 or 1.1 nM ^3H-DPDPE respectively in a total volume of 200 μL for 90 min at rt (22° C.). The contents of the wells were filtered and washed 5 times with chilled 50 mM Tris buffer pH 7.6 through H2O pre-soaked GF/B filters using a Perkin Elmer Filtermate. The filters were dried and upon application of scintillant the bound radioactive content for each well determined by scintillation counting in a Wallac TriLux Microbeta scintillation counter. Non-specific binding was determined in the presence of 2 μM Naloxone. IC50 values were determined by plotting log concentration test compound against specific binding and subsequent Ki values calculated.

mu-opioid receptor [2] = biological target: T1, mu-opioid receptor; experiment: GTPγS functional binding assay (DAMGO-stimulated); assay type: biochemical; conditions: mu-opioid receptor expressing membranes, agonist DAMGO 10 nM, 35S-GTPγS binding
Method: GTPγS Functional Binding Assays
Mu-, kappa- or delta-opioid receptor expressing membranes (5-20 μg/well) were suspended in 50 mM HEPES buffer pH 7.6 containing 3 mM MgCl2, 120 mM NaCl, 150 pM GTPγS, 10 μg/mL saponin and 3 μM GDP (μ-opioid receptor assay) or 5 μM GDP (κ- and δ-opioid receptor assay) and were pre-incubated on 96-well plates with test compound or vehicle (1% DMSO) in a total volume of 160 μL for 10 min at rt (22° C.). Specific agonists DAMGO (10 nM final concentration), U-50,488 (30 nM final concentration) or SNC-80 (10 nM final concentration) were added respectively and the plates pre-incubated for a further 15 min at rt (22° C.) ^35S-GTPγS at a final concentration in the assay of 150 pM was then added to provide a total volume per well of 200 μL and the plates incubated for 45 min at 30° C. The contents of the wells were filtered and washed 5 times with chilled 50 mM Tris buffer pH 7.6 through H2O pre-soaked GF/B filters using a Perkin Elmer Filtermate. The filters were dried and upon application of scintillant the bound radioactive content for each well determined by scintillation counting in a Wallac TriLux Microbeta scintillation counter. Non-specific binding was determined in the presence of 10 μM GTPγS. IC50 values were determined by plotting log concentration test compound against percentage increase over non-stimulated ^35S-GTPγS binding.

T1 sequence (P35372 whole entry, species assumed): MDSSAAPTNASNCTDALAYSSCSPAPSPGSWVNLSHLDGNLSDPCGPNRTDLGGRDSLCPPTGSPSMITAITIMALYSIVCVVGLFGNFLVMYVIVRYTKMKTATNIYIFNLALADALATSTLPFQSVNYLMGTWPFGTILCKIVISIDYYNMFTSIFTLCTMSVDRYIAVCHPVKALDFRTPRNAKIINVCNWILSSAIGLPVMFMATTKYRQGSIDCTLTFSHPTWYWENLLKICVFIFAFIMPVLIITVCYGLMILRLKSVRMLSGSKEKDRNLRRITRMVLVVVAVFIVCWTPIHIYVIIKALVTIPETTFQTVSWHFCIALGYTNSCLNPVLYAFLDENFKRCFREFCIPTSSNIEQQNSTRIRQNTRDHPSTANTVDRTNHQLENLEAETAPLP

| SMILES | Ki (mu-opioid receptor [1]) | IC50 (mu-opioid receptor [2]) |
| --- | --- | --- |
| Cc1cc(CNCCC2C3CC4CC(C3)CC2C4)ccc1-c1cccc(C(N)=O)c1 (stereo not shown) [Example 46, 4′-[(2-Adamantan-2-yl-ethylamino)methyl]-2′-methylbiphenyl-3-carboxylic acid amide] | < 100 nM | < 100 nM |
| NC(=O)c1cccc(-c2ccc(CNCCC3C4CC5CC(C4)CC3C5)cn2)c1 (stereo not shown) [Example 84, 3-{5-[(2-Adamantan-2-ylethylamino)methyl]-pyridin-2-yl}benzamide] | < 100 nM | < 100 nM |
